Columns and labels:
GI transit = settings: rat, in vivo
[1] = tested on: thermal (heat) response latencies; settings: rat, in vivo
[2] = tested on: formalin-induced tonic flinch responses; settings: rat, in vivo; cited from earlier work
[3] = tested on: heart rate and arterial blood pressure; settings: rat, in vivo
[4] = tested on: formalin-induced tonic flinch responses; settings: rat, in vivo

For `CN1CC[C@]23c4c5ccc(O)c4OC2C(O)C=C[C@H]3[C@H]1C5` (stereo partly drawn) [morphine, 7,8-didehydro-4,5-epoxy-17-methylmorphinan-3,6-diol], the GI transit (GI transit) was “dose-dependent inhibition”, the “development of tolerance to analgesic effects” value [1] was “declined in magnitude” and the “thermal (heat) response latencies” value [1] was “moderately antinociceptive”. For the same compound, the “tonic formalin-induced flinching behavior after six days infusion” value [2] was “significantly reduced”.

For `Clc1cccc(Cl)c1N=C1NCCN1` [clonidine, 2,6-dichloro-N-2-imidazolidinylidenebenzenamine], the heart rate [3] was “dose-dependent bradycardia” and the “formalin-induced tonic (persistent) pain behavior” value (from here on “formalin-induced tonic”) [4] was “dose-dependently suppressed”.

With `NCC(CC(=O)O)c1ccc(Cl)cc1` (stereo not drawn) [baclofen, γ-amino-β-(p-chlorophenyl) butyric acid] the “formalin-induced tonic” value [4] was “dose-dependent reductions”.

For `CCCCN1CCCCC1C(=O)Nc1c(C)cccc1C` (stereo not drawn) [bupivacaine], the “formalin-induced tonic” value [4] was “did not significantly inhibit” and the hindpaw paralysis [4] was “immediate but transient hindpaw paralysis”.
